The subject of data set [1] is Single-donor human red blood cells. The data set is described as follows: Hemolysis assay. It counts as cell-based. Summed up: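 Peptides at 300 μg/ml (SySA library) or 128 μg/ml (SySA-5 optimization library) were incubated in triplicate with washed single-donor RBCs (1 × 10^9 cells/ml) for 3 h at 37 °C. Supernatant A540 was background-normalized to PBS and expressed relative to 1% Triton X-100 (100% hemolysis).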

Data set [2] concerns Acinetobacter baumannii AB5075.
The test system of data set [3] is gram-positive and gram-negative pathogens, including colistin-resistant strains. Nature of the data set: MIC against pathogen panel (tables S4 and S5, not shown). It counts as cell-based. As for the experimental part: MICs were performed by a modifiedClinical and Laboratory Standards Institute) procedure. Stock peptides were diluted to 2.56 mg/ml in 50 μl of 0.01% acetic acid containing 0.2% bovine serum albumin. Peptide was then serially diluted twofold in this solution, and 10 μl of each dilution was added to a polypropylene 96-well plate (Corning, ref. no. 3879) in triplicate. Separately, E. coli W3110 or A. baumannii AB5075 was grown overnight in 5 ml of standard MH at 37°C. Cells from these cultures were diluted to a concentration of 5 × 10^5 to 6 × 10^5 cells/ml in either standard MH, MHII, RPMI, or fetal bovine serum, and 90 μl was added to each well of the 96-well plate containing diluted peptide. Plates were wrapped twice in parafilm and incubated at 37°C for 18 to 24 hours. Wells were examined by eye against wells with no bacteria for signs of growth. MICs were reported as the minimum concentration with no observable growth. In cases where triplicate samples differed, the concentration supported by the median of the three replicates was reported.
A. baumannii 17978 Lab Stock
A. baumannii 17978 R2 Lab Stock
V. cholerae C6706 Lab Stock
P. aeruginosa ATCC 27853 ATCC
K. pneumonia ATCC 1705 ATCC
S. aureus USA100 Lab Stock
Excel spreadsheet with chemically synthesized peptide properties and biochemical data.
Excel spreadsheet with all SynCH SLAY data analysis and potency score predictions

The next data set has as its system Escherichia coli W3110. It counts as cell-based. The conditions noted are these: for Ec W3110 MIC MH: E. coli W3110, MH medium; for W3110 MIC MHII: E. coli W3110, MHII medium; for Ec W3110 MIC RPMI: E. coli W3110, RPMI medium.
The nature of data set [4]: High-resolution LC-MS, percentage with intramolecular disulfide bond (%S-S). The format is physicochemical. The procedure: Stock peptides were diluted into PBS (pH 7.4) at 0.1 mg/ml in a volume of 150 μl and placed into 2-ml autosampler vials with small volume inserts (Fisherbrand, 03-391-8). Samples were separated by a C8 LC column, and an extracted ion chromatogram was generated for the most prevalent charge state isotopes. Mass spectra were generated for each extracted LC peak using an Agilent Technologies 6546 Accurate Mass quadrupole orthogonal acceleration–time-of-flight LC-MS instrument. Analysis was performed using Agilent MassHunter Qualitative software v10. The isotope distribution for each LC peak from each sample was compared to predicted distributions created using Agilent’s Isotope Distribution Calculator. Percentages of molecules with disulfide bonds was determined by comparing the area under the curve for each LC peak containing a disulfide bond over the total area of all relevant peaks (sum area %) and reported as a mean of three technical replicates ± 1 SD.

Data set [5] in a line: Circular dichroism (CD) spectroscopy (secondary structure, aggregation). It counts as physicochemical. The conditions noted are these: CD at 450 µg/ml to 50 µg/ml, 10 mM potassium phosphate pH 7.4.
[6] abbreviates: 100% fetal bovine serum, replicate 1.
Where [7] appears, read: 100% fetal bovine serum, replicate 2.
[8] abbreviates: 100% fetal bovine serum, replicate 3.

“Also recorded” adds a separate entry of the source. Where two headings read alike, the source gives them in different places. Bridge positions count the residues as written; N and C are the ends. Ends that are not written are not given here. Peptide text beside a SMILES is read from it.

In the case of `CC(C)C[C@@H]1NC(=O)[C@H](CCCNC(=N)N)NC(=O)[C@H](C(C)C)NC(=O)[C@H](CCCCN)NC(=O)[C@@H]2CSSC[C@H](NC(=O)[C@H](CCCNC(=N)N)NC(=O)[C@H](CC(C)C)NC(=O)[C@H](CCCNC(=N)N)NC(=O)[C@H](C(C)C)NC(=O)[C@H](CCCNC(=N)N)NC(=O)[C@@H](N)CSSC[C@@H](C(=O)O)NC(=O)[C@H](CCCNC(=N)N)NC1=O)C(=O)N[C@@H](CCCNC(=N)N)C(=O)N[C@@H](CCCNC(=N)N)C(=O)N[C@@H](CCCNC(=N)N)C(=O)N[C@@H](CCCNC(=N)N)C(=O)N2` [SySA-5.17] (H-CRVRLRCRRRRCKVRLRC-OH; disulfide 1-18, 7-12 (inferred); N-terminus and C-terminus assumed), the “fold less hemolytic (toxicity) than Protegrin-1” value was “over 10 fold” in data set [1] (hemolysis at 128 µg/ml) and “greater than ten-fold” in data set [1] (hemolysis at 128 µg/ml, listed as SySA 5.17). In data set [1] (hemolysis at 128 µg/ml, fold change relative to SySA-5), the “Fold Change Hemolysis” value amounted to 2.4. The “AB5075 MIC FBS” value in data set [2] (100% fetal bovine serum, median of triplicate) was 32 mg/L; in data set [2] (setting [6]), 32 mg/L; in data set [2] (setting [7]), 32 mg/L; in data set [2] (setting [8]), 32 mg/L. Besides, the “AB5075 MIC MH” value turned out to be 4 mg/L in data set [2] (Mueller-Hinton, replicate 1); 4 mg/L in data set [2] (Mueller-Hinton, replicate 2); 4 mg/L in data set [2] (Mueller-Hinton, replicate 3). Also, in data set [3], the spectrum of activity result was “broad-spectrum activity”.

Consider `CC(C)C[C@@H]1NC(=O)[C@H](CCCNC(=N)N)NC(=O)[C@H](C(C)C)NC(=O)[C@H](CCCNC(=N)N)NC(=O)[C@H](CC(C)C)NC(=O)[C@@H](N)CSSC[C@@H](C(=O)O)NC(=O)[C@H](C(C)C)NC(=O)[C@H](CCC(N)=O)NC(=O)[C@H](CC(C)C)NC(=O)[C@H](CO)NC(=O)[C@H](C(C)C)NC(=O)[C@H](CCCCN)NC(=O)[C@H](C(C)C)NC(=O)[C@H](CCCNC(=N)N)NC(=O)CNC(=O)[C@H](CCCNC(=N)N)NC(=O)[C@H](CCCNC(=N)N)NC(=O)[C@H](CC(N)=O)NC(=O)[C@H](CC(N)=O)NC1=O` [SySA-5] (H-CLRVRLNNRRGRVKVSLQVC-OH; disulfide 1-20; N-terminus and C-terminus assumed), for which the Ec W3110 MIC MH in the data set on Escherichia coli W3110 turned out to be 16 mg/L. In the data set with Escherichia coli W3110, this compound had a W3110 MIC MHII of 128 mg/L. The compound also came in with an Ec W3110 MIC RPMI in the data set on Escherichia coli W3110 of 4 mg/L. Moreover, in the data set with Escherichia coli W3110 (E. coli W3110, standard Mueller-Hinton broth, 37°C, 18-24 h, median of n=3), the “W3110 MIC MH” value came out at 16 mg/L. Moreover, the “W3110 MIC RPMI” value with Escherichia coli W3110 (W3110) was found to be 4 mg/L. Moreover, the “%S-S” value in data set [4] worked out at 100%. Further, the “AB5075 MIC FBS” value in data set [2] (setting [6]), in data set [2] (setting [7]), in data set [2] (setting [8]) and in data set [2] (AB5075) was more than 128 mg/L each time. For the same compound, the “AB5075 MIC MH” value was found to be 32 mg/L in data set [2] (AB5075); 64 mg/L in data set [2] (Mueller-Hinton, replicate 1); 32 mg/L in data set [2] (Mueller-Hinton, replicate 2); 32 mg/L in data set [2] (Mueller-Hinton, replicate 3).

Regarding `CC(C)C[C@@H]1NC(=O)[C@H](CO)NC(=O)[C@H](C(C)C)NC(=O)[C@H](CCCCN)NC(=O)[C@H](C(C)C)NC(=O)[C@H](CCCNC(=N)N)NC(=O)[C@H](CCCNC(=N)N)NC(=O)[C@H](CCCNC(=N)N)NC(=O)CNC(=O)[C@H](CC(N)=O)NC(=O)[C@H](CC(N)=O)NC(=O)[C@H](CC(C)C)NC(=O)[C@H](CCCNC(=N)N)NC(=O)[C@H](C(C)C)NC(=O)[C@H](CCCNC(=N)N)NC(=O)[C@H](C(C)C)NC(=O)[C@@H](N)CSSC[C@@H](C(=O)O)NC(=O)[C@H](C(C)C)NC(=O)[C@H](CCC(N)=O)NC1=O` [SySA-26] (H-CVRVRLNNGRRRVKVSLQVC-OH; disulfide 1-20; N-terminus and C-terminus assumed), in the data set on Escherichia coli W3110, the Ec W3110 MIC MH amounted to 16 mg/L, the W3110 MIC MHII is more than 128 mg/L and the Ec W3110 MIC RPMI stood at 16 mg/L. In the data set with Escherichia coli W3110 (W3110), the “W3110 MIC MH” value turned out to be 16 mg/L and the “W3110 MIC RPMI” value was found to be 16 mg/L. Further, the “%S-S” value in data set [4] was determined as 100%.

On to `CC(C)C[C@@H]1NC(=O)CNC(=O)[C@H](CCCNC(=N)N)NC(=O)[C@H](CCCNC(=N)N)NC(=O)[C@H](CCCNC(=N)N)NC(=O)[C@H](CC(N)=O)NC(=O)[C@H](CC(N)=O)NC(=O)[C@H](CC(C)C)NC(=O)[C@H](CCCNC(=N)N)NC(=O)[C@H](C(C)C)NC(=O)[C@H](CCCNC(=N)N)NC(=O)[C@H](C(C)C)NC(=O)[C@@H](N)CSSC[C@@H](C(=O)O)NC(=O)[C@H](C(C)C)NC(=O)[C@H](CCC(N)=O)NC(=O)[C@H](CC(C)C)NC(=O)[C@H](CO)NC(=O)[C@H](C(C)C)NC(=O)[C@H](CCCNC(=N)N)NC1=O` [SySA-29] (H-CVRVRLNNRRRGLRVSLQVC-OH; disulfide 1-20; N-terminus and C-terminus assumed), for which, in the data set with Escherichia coli W3110, the Ec W3110 MIC MH was found to be 16 mg/L, the W3110 MIC MHII was more than 128 mg/L and the Ec W3110 MIC RPMI stood at 8 mg/L. In the data set with Escherichia coli W3110 (W3110), the “W3110 MIC MH” value is 16 mg/L and the “W3110 MIC RPMI” value was determined as 8 mg/L. In addition, the “%S-S” value in data set [4] was determined as 100%.

In the data set with Escherichia coli W3110, `CC[C@H](C)[C@@H]1NC(=O)[C@H](CCCCN)NC(=O)[C@H](C(C)C)NC(=O)CNC(=O)[C@H](CCCNC(=N)N)NC(=O)[C@H](CCCNC(=N)N)NC(=O)[C@H](CCCNC(=N)N)NC(=O)[C@H](CC(N)=O)NC(=O)[C@H](CC(N)=O)NC(=O)[C@H](CC(C)C)NC(=O)[C@H](CCCNC(=N)N)NC(=O)[C@H](C(C)C)NC(=O)[C@H](CCCNC(=N)N)NC(=O)[C@H](C(C)C)NC(=O)[C@@H](N)CSSC[C@@H](C(=O)O)NC(=O)[C@H](C(C)C)NC(=O)[C@H](CCC(N)=O)NC(=O)[C@H](CC(C)C)NC(=O)[C@H](CO)NC1=O` [SySA-49] (H-CVRVRLNNRRRGVKISLQVC-OH; disulfide 1-20; N-terminus and C-terminus assumed) registered an Ec W3110 MIC MH of 32 mg/L, a W3110 MIC MHII of more than 128 mg/L and an Ec W3110 MIC RPMI of 8 mg/L. Besides, in the data set with Escherichia coli W3110 (W3110), the “W3110 MIC MH” value is 32 mg/L and the “W3110 MIC RPMI” value amounted to 8 mg/L. Besides, the “%S-S” value in data set [4] came to 91.4%. Also, the “molar ellipticity of CD spectrum at different concentrations (aggregation)” value in data set [5] is “remained relatively constant regardless of increased concentration; also recorded: equivalent at increased and reduced concentrations”.

As for `CC[C@H](C)[C@@H]1NC(=O)[C@H](CCCCN)NC(=O)[C@H](CC(C)C)NC(=O)CNC(=O)[C@H](CCCNC(=N)N)NC(=O)[C@H](CCCNC(=N)N)NC(=O)[C@H](CCCNC(=N)N)NC(=O)[C@H](CC(N)=O)NC(=O)[C@H](CC(N)=O)NC(=O)[C@H](CC(C)C)NC(=O)[C@H](CCCNC(=N)N)NC(=O)[C@H](C(C)C)NC(=O)[C@H](CCCNC(=N)N)NC(=O)[C@H](CC(C)C)NC(=O)[C@@H](N)CSSC[C@@H](C(=O)O)NC(=O)[C@H](C(C)C)NC(=O)[C@H](CCC(N)=O)NC(=O)[C@H](CC(C)C)NC(=O)[C@H](CO)NC1=O` [SySA-61] (H-CLRVRLNNRRRGLKISLQVC-OH; disulfide 1-20; N-terminus and C-terminus assumed), in the data set on Escherichia coli W3110, the Ec W3110 MIC MH amounted to 32 mg/L, the W3110 MIC MHII was more than 128 mg/L and the Ec W3110 MIC RPMI was 8 mg/L. Besides, in the data set with Escherichia coli W3110 (W3110), the “W3110 MIC MH” value was 32 mg/L and the “W3110 MIC RPMI” value came out at 8 mg/L. For the same compound, the “%S-S” value in data set [4] came out at 91.5%.

“RGGRLCYCRRRFCVCVGR (disulfide (positions not given here)) [Protegrin]”: in the data set on Escherichia coli W3110, the Ec W3110 MIC MH stood at 0.5 mg/L, the W3110 MIC MHII came out at 8 mg/L and the Ec W3110 MIC RPMI is 0.5 mg/L. Also, the hemolysis in data set [1] was determined as 41.84%. Also, the “%S-S” value in data set [4] is listed as 100%.

The values above are taken from PMC9833666, “Designing and identifying β-hairpin peptide macrocycles with antibiotic potential” (Science Advances, 2023).
